The record followed here is ChEMBL document CHEMBL5252624, “Antifungal evaluation of quinoline-chalcone derivatives combined with FLC against drug-resistant Candida albicans” (2023).

Calls of active or inactive are those of the source. The calls are words filed in the database; no cut-off is given here. Some results are limits rather than exact numbers.

In test [1] the test system is Candida albicans. The test can be described thus: Antifungal activity against Candida albicans ATCC SC5314 assessed as fungal growth inhibition by microdilution method. The class given is functional.
Test [2] relates to Candida albicans. The test can be described thus: Antifungal activity against Candida albicans ATCC SC5314 assessed as fungal growth inhibition in presence of fluconazole by microdilution method. The test is classed as functional.
The subject of test [3] is Candida albicans. The test can be described thus: Antifungal activity against […] assessed as fungal growth inhibition in presence of fluconazole by microdilution method. The class given is functional.
In test [4] the test system is Candida albicans. The test can be described thus: Antifungal activity against […] assessed as fractional inhibitory concentration index in presence of fluconazole by microdilution method. The class given is functional.
For test [5], the system named is Candida albicans. Nature of the test: Antifungal activity against Candida albicans ATCC SC5314 assessed as fractional inhibitory concentration index in presence of fluconazole by microdilution method. The test is classed as functional.
For test [6], the system named is Candida albicans. The test can be described thus: Antifungal activity against […] assessed as fungal growth inhibition by microdilution method. The class given is functional.
For test [7], the system named is Candida albicans. The test can be described thus: Inhibition of biofilm formation in Candida albicans ATCC SC5314 at 32 microg/ml in presence fluconazole measured at 24 hrs. The class given is functional, organism-based. Particulars: dose 32.0 µg/ml.
Test [8] relates to Candida albicans. Nature of the test: Induction of ROS accumulation in Candida albicans assessed as increase in intracellular ROS level. The test is classed as functional, organism-based.
Test [9] concerns Candida albicans. Nature of the test: Antifungal activity against […] assessed as fungal growth inhibition measured for 72 hrs by time kill assay. The class given is functional, organism-based.
The test system of test [10] is Candida albicans. The test can be described thus: Inhibition of mitochondrial membrane potential in Candida albicans. The class given is functional, organism-based.
Test [11] relates to Candida albicans. The test can be described thus: Downregulation of ATP level in Candida albicans. The test is classed as functional, organism-based.
Test [12] relates to Candida albicans. The test can be described thus: Downregulation of ATP level in Candida albicans in presence of fluconazole. The class given is functional, organism-based.
Test [13] concerns Candida albicans. Nature of the test: Induction of ROS accumulation in Candida albicans assessed as increase in intracellular ROS level in presence of fluconazole. The class given is functional, organism-based.
The subject of test [14] is Candida albicans. The test can be described thus: Antifungal activity against […] assessed as fungal growth inhibition in presence of fluconazole by time kill assay. The test is classed as functional, organism-based. The settings on record: time 72.0 hrs, TDE = time-dependent effect.
The test system of test [15] is Candida albicans. Nature of the test: Inhibition of mitochondrial membrane potential in Candida albicans in presence of fluconazole. The class given is functional, organism-based.
Test [16] concerns Candida albicans. The test can be described thus: Antifungal activity against Candida albicans ATCC SC5314 assessed as reduction in hypha length at 32 microg/ml measured for 4 to 8 hrs in presence fluconazole of by inverted microscopic analysis. The class given is functional, organism-based. Particulars: dose 32.0 µg/ml, time 4-8 hrs.
Test [17] relates to Candida albicans. Nature of the test: Antifungal activity against Candida albicans ATCC SC5314 assessed as decrease in number of hypha at 32 microg/ml measured for 4 to 8 hrs in presence fluconazole of by inverted microscopic analysis. The class given is functional, organism-based. Particulars: dose 32.0 µg/ml, time 4-8 hrs.

Turning to `CCOc1nc2ccccc2cc1/C=C/C(=O)c1ccc(OC(F)(F)F)cc1`, the figures for the MIC80 in the test on Candida albicans [1], in the test with Candida albicans [2] and in the test with Candida albicans [3] were above 200 µg/mL, 2.9 µg/mL and 16 µg/mL, respectively. Moreover, the FICI80 in the test with Candida albicans [4] turned out to be 0.08; with Candida albicans [5] it was 16.04.

In the case of `Cc1cccc(C)c1Oc1nc2ccccc2cc1/C=C/C(=O)c1ccc(OC(F)(F)F)cc1`, the MIC80 with Candida albicans [1] is above 200 µg/mL; in the test with Candida albicans [2], 2.37 µg/mL. In addition, the FICI80 in the test on Candida albicans [4] worked out at 2; in the test with Candida albicans [5] it was 1.17.

With `O=C(/C=C/c1cc2ccccc2nc1N1CCCCC1)c1ccc(F)cc1`, the MIC80 is above 200 µg/mL in the test on Candida albicans [1] and 0.96 µg/mL in the test with Candida albicans [2]. For the same compound, the FICI80 in the test with Candida albicans [4] was determined as 2; in the test on Candida albicans [5], 0.48.

`CCN(CC)c1nc2ccccc2cc1/C=C/C(=O)c1ccc([N+](=O)[O-])cc1`: the results for the MIC80 in the test on Candida albicans [1] and with Candida albicans [2] were above 200 µg/mL and 3.99 µg/mL, respectively. In addition, the FICI80 with Candida albicans [4] is reported as 2; in the test with Candida albicans [5], 1.98.

With `CCN(CC)c1nc2ccccc2cc1/C=C/C(=O)c1ccc(F)cc1`, the MIC80 was above 200 µg/mL in the test on Candida albicans [1], 1.87 µg/mL with Candida albicans [2] and 5.36 µg/mL in the test on Candida albicans [3]. Also, the FICI80 in the test on Candida albicans [4] came to 0.03; in the test with Candida albicans [5], 0.93.

Regarding `Cc1cccc(C)c1Oc1nc2ccccc2cc1/C=C/C(=O)c1ccc([N+](=O)[O-])cc1`, the MIC80 with Candida albicans [1] is above 200 µg/mL; in the test with Candida albicans [2], 3.07 µg/mL. The FICI80 in the test on Candida albicans [4] was determined as 0.23; with Candida albicans [5], 1.52.

As for `OC(Cn1cncn1)(Cn1cncn1)c1ccc(F)cc1F` [FLUCONAZOLE], the MIC80 in the test on Candida albicans [1] is 2.03 µg/mL; in the test on Candida albicans [6], above 200 µg/mL.

Take `CCOc1nc2ccccc2cc1/C=C/C(=O)c1ccc(F)cc1`: the MIC80 in the test with Candida albicans [1] is above 200 µg/mL; in the test with Candida albicans [2], 5.54 µg/mL. The FICI80 in the test on Candida albicans [4] is given as 2; in the test on Candida albicans [5], 2.74.

Turning to `O=C(/C=C/c1cc2ccccc2nc1N1CCCCC1)c1ccc([N+](=O)[O-])cc1`, the MIC80 with Candida albicans [1] is above 200 µg/mL; with Candida albicans [2] it was 5.64 µg/mL. For the same compound, the FICI80 is 2 with Candida albicans [4] and 2.79 with Candida albicans [5].

As to `CN1CCN(c2nc3ccccc3cc2/C=C/C(=O)c2ccc([N+](=O)[O-])cc2)CC1`, the inhibition result in the test on Candida albicans [7] is “Active”. Besides, the outcome with Candida albicans [8] was inactive. Further, the outcome in the test with Candida albicans [9], with Candida albicans [11], in the test with Candida albicans [12] and in the test on Candida albicans [13] was Active. In addition, the MIC80 in the test with Candida albicans [1] is above 200 µg/mL; with Candida albicans [2] it was 4.28 µg/mL; in the test on Candida albicans [3], 6.9 µg/mL. The inhibition entry with Candida albicans [10] is “inactive”. Further, the results for the FICI80 with Candida albicans [4] and in the test on Candida albicans [5] were 0.17 and 1.25, respectively. The Activity entry in the test on Candida albicans [14] is “Tde”.

As to `Cc1cccc(C)c1Oc1nc2ccccc2cc1/C=C/C(=O)c1ccc(F)cc1`, the MIC80 with Candida albicans [1] is above 200 µg/mL; with Candida albicans [2] it was 1.17 µg/mL; in the test on Candida albicans [3] it was 65.1 µg/mL. Further, the FICI80 worked out at 0.33 with Candida albicans [4] and 0.58 in the test with Candida albicans [5].

For `CN1CCN(c2nc3ccccc3cc2/C=C/C(=O)c2ccc(F)cc2)CC1`, the inhibition result in the test on Candida albicans [7] and in the test with Candida albicans [15] was “Active” in each case. In addition, the result in the test on Candida albicans [8], with Candida albicans [9], in the test with Candida albicans [11], in the test on Candida albicans [12], in the test with Candida albicans [16] and with Candida albicans [13] was Active. Moreover, in the test on Candida albicans [17], the result was Active. Also, the MIC80 in the test on Candida albicans [1] was 85.9 µg/mL; in the test on Candida albicans [2], 3.61 µg/mL; with Candida albicans [6], above 200 µg/mL; with Candida albicans [3], 6.4 µg/mL. Moreover, the values for the FICI80 in the test with Candida albicans [4] and in the test on Candida albicans [5] were 0.16 and 1.82, respectively. Moreover, in the test with Candida albicans [14], the Activity entry is “Tde”.

Turning to `O=C(/C=C/c1cc2ccccc2nc1N1CCCCC1)c1ccc(OC(F)(F)F)cc1`, the MIC80 in the test with Candida albicans [1] was above 200 µg/mL; in the test with Candida albicans [2], 4.89 µg/mL. Also, the FICI80 in the test with Candida albicans [4] came to 2; in the test on Candida albicans [5] it was 2.42.

As to `CN1CCN(c2nc3ccccc3cc2/C=C/C(=O)c2ccc(OC(F)(F)F)cc2)CC1`, the MIC80 in the test on Candida albicans [1] is 17.6 µg/mL; in the test on Candida albicans [2], 4.28 µg/mL; in the test on Candida albicans [6], 17.8 µg/mL; in the test with Candida albicans [3] it was 6.14 µg/mL. The FICI80 with Candida albicans [4] is listed as 0.23; in the test with Candida albicans [5], 2.35.

Regarding `CCOc1nc2ccccc2cc1/C=C/C(=O)c1ccc([N+](=O)[O-])cc1`, the MIC80 with Candida albicans [1] is above 200 µg/mL; in the test on Candida albicans [2], 4.96 µg/mL. Besides, the FICI80 with Candida albicans [4] stood at 2; in the test on Candida albicans [5] it was 2.46.

For the compound `CCN(CC)c1nc2ccccc2cc1/C=C/C(=O)c1ccc(OC(F)(F)F)cc1`, the MIC80 in the test with Candida albicans [1] was above 200 µg/mL; with Candida albicans [2], 1.85 µg/mL; in the test on Candida albicans [3] it was 4.42 µg/mL. In addition, the FICI80 is 0.02 in the test on Candida albicans [4] and 0.92 with Candida albicans [5].
